Measured values reported in patent US12037344B2, “NLRP3 modulators” (INNATE TUMOR IMMUNITY, INC., priority 2018, dated 2024).
Like-named read-outs stand apart in the source and are kept apart here.

How the values were obtained:
TLR8 = target: T1, TLR8 (Homo sapiens, UniProt Q9NR97); assay: In vitro human TLR8 binding reporter assay (HEK-Blue, NF-kB/AP1-inducible SEAP); format: cell-based; conditions: read-out: TLR8 Agonist EC50
T1 construct: human HEK-Blue cells co-expressing a TLR7 or TLR8 gene
T1 sequence (Q9NR97 27-1041): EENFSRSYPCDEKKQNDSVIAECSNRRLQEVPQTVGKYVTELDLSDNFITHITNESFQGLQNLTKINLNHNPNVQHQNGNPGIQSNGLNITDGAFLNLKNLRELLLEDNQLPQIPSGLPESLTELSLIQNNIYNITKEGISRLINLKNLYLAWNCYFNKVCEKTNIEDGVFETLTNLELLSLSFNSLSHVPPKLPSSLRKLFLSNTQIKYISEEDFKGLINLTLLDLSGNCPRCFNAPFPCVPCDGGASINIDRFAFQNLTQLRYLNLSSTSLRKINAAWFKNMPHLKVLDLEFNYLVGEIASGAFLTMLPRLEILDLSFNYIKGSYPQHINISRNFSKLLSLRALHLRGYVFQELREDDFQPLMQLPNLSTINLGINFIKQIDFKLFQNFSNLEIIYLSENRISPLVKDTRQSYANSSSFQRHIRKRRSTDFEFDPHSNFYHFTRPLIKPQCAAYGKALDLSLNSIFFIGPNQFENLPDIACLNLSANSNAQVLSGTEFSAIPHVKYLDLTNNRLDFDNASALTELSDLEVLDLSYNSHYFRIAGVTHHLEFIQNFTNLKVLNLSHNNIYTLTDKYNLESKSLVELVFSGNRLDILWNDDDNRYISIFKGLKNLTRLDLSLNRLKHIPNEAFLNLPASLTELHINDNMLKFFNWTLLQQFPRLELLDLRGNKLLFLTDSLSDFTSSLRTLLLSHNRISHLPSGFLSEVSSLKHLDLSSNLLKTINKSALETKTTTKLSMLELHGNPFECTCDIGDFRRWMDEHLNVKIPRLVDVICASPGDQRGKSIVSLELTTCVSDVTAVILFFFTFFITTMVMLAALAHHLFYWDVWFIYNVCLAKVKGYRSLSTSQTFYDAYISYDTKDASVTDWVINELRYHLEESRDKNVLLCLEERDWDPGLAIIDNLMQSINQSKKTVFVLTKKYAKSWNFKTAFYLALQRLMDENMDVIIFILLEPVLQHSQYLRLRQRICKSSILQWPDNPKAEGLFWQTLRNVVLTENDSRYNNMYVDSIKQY
Procedure, shortened: (§1)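 HEK-Blue cells expressing human TLR7 or TLR8 with NF-kB/AP1-inducible SEAP reporter, plated 24 h, then compound-treated 18 h at 37° C, 5% CO2. EC50 normalized to 100% Ymax set by 50 μM reference standard.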

TLR7 = target: T2, TLR7 (Homo sapiens, UniProt Q9NYK1); assay: In vitro human TLR7 binding reporter assay (HEK-Blue, NF-kB/AP1-inducible SEAP); format: cell-based; conditions: read-out: TLR7 Agonist EC50
T2 construct: human HEK-Blue cells co-expressing a TLR7 or TLR8 gene
T2 sequence (Q9NYK1 27-1049): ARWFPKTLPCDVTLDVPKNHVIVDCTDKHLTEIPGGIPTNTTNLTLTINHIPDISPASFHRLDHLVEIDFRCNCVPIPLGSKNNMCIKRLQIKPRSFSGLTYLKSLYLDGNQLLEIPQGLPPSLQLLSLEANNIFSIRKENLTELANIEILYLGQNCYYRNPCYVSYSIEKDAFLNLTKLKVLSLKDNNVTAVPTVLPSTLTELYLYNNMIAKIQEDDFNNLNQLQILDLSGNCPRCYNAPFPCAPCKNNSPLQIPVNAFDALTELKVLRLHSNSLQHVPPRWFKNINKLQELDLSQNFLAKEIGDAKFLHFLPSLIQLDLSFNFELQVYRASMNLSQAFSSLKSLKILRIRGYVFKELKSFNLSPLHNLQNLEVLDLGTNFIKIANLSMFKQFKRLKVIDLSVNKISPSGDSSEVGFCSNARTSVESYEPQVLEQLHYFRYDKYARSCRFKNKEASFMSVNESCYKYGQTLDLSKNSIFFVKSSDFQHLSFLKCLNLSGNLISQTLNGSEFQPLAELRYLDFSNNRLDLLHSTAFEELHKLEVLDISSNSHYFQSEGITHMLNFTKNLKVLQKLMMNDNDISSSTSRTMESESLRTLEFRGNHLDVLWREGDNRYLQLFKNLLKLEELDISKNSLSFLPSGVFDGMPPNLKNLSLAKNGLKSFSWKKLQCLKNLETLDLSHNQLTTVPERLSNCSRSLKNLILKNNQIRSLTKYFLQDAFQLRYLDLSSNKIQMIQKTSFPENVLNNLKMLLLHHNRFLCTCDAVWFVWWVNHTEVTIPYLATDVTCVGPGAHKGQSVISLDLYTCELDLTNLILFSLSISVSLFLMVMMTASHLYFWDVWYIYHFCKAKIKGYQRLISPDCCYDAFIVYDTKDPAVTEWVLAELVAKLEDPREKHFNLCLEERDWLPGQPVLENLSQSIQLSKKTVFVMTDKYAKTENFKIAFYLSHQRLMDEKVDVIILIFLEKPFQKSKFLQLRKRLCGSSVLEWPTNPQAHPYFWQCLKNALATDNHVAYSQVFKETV
Procedure, shortened: as §1

THP-1 cells = assay: Measurement of IL-1β production, hTRF protocol (second alternative procedure), THP-1 cells; format: cell-based, human; conditions: Homo sapiens, THP-1, IL-1β production, read-out: NLRP3 hILIB EC50
Procedure, shortened: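 THP-1 cells differentiated overnight with 50 ng/ml PMA, then plated at 50,000 cells/well in RPMI with 2% FBS onto serial compound dilutions (top final concentration 10 μM) for 2 hours at 37° C. Supernatant IL-1β measured by hTRF (antibodies at 1:40, overnight at 4° C), read at 665/615 nm against a standard curve.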

Nc1nc2cc(-c3ccn[nH]3)ccc2c2sc(CCNC(=O)c3ccccn3)nc12 [Example 136, N-[2-[4-amino-7-(1H-pyrazol-5-yl)-[1,3]thiazolo[4,5-c]quinolin-2-yl]ethyl]pyridine-2-carboxamide]
EC50 (TLR8; activity range class): > 100 µM
EC50 (TLR7; activity range class): 20 to 100 µM
EC50 (THP-1 cells; human): 0.16 µM

CC(C)NC(=O)C(C)(C)Cn1cc2c(N)nc3cc(-c4ccn[nH]4)ccc3c2n1 [Example 603]
EC50 (TLR8; activity range): > 100 µM
EC50 (TLR7; activity range): > 100 µM
EC50 (THP-1 cells; human cells): 3.05 µM

Nc1nc2cc(-c3cc[nH]n3)ccc2c2cn(CCc3ccccn3)nc12 [Example 163]
EC50 (TLR8; activity range class): > 100 µM
EC50 (TLR7; activity range class): > 100 µM
EC50 (THP-1 cells; human): 0.06 µM

Nc1nc2cc(-c3cc[nH]n3)ccc2c2nn(CC(F)F)cc12 [Example 224]
EC50 (TLR8; activity range class): > 100 µM
EC50 (TLR7; activity range class): > 100 µM
EC50 (THP-1 cells; human): 0.14 µM

Nc1nc2cc(-c3cc[nH]n3)ccc2c2c1cnn2CC(F)F [Example 225]
EC50 (TLR8; activity range class): > 100 µM
EC50 (TLR7; activity range class): > 100 µM
EC50 (THP-1 cells; human): 0.2 µM

Nc1nc2cc(-c3cc[nH]n3)ccc2c2nn(Cc3cccnn3)cc12 [Example 360]
EC50 (TLR8; activity range class): > 100 µM
EC50 (TLR7; activity range class): > 100 µM
EC50 (THP-1 cells; human): 0.11 µM

Nc1nc2cc(-c3ccn[nH]3)ccc2c2nn(CCCNS(=O)(=O)c3ccccc3)cc12 [Example 587]
EC50 (TLR8; activity range): > 100 µM
EC50 (TLR7; activity range): > 100 µM
EC50 (THP-1 cells; human cells): 2.39 µM

CC(=O)NCCn1cc2c(n1)c(N)nc1cc(-c3cccs3)ccc12 [Example 130]
EC50 (TLR8; activity range class): > 100 µM
EC50 (TLR7; activity range class): > 100 µM
EC50 (THP-1 cells; human): 0.64 µM

CC(C(=O)NCCCO)n1cc2c(N)nc3cc(-c4ccn[nH]4)ccc3c2n1 (stereo not drawn) [Example 572]
EC50 (TLR8; activity range): > 100 µM
EC50 (TLR7; activity range): > 100 µM
EC50 (THP-1 cells; human cells): 4.41 µM

NC(=O)CCn1cc2c(N)nc3cc(-c4cc[nH]n4)ccc3c2n1 [Example 462]
EC50 (TLR8; activity range): > 100 µM
EC50 (TLR7; activity range): > 100 µM
EC50 (THP-1 cells; human cells): 0.22 µM

Nc1nc2cc(-c3cc[nH]n3)ccc2c2nn(C3COCC3O)cc12 (stereo not drawn) [Example 323]
EC50 (TLR8; activity range class): > 100 µM
EC50 (TLR7; activity range class): > 100 µM
EC50 (THP-1 cells; human): 0.78 µM

COCC(O)Cn1ncc2c(N)nc3cc(-c4cc[nH]n4)ccc3c21 (stereo not drawn) [Example 306]
EC50 (TLR8; activity range class): > 100 µM
EC50 (TLR7; activity range class): > 100 µM
EC50 (THP-1 cells; human): 1.26 µM

Nc1nc2cc(-c3cc[nH]n3)ccc2c2cn(CCNCc3cccc(F)c3)nc12 [Example 106]
EC50 (TLR8; activity range class): 20 to 100 µM
EC50 (TLR7; activity range class): 20 to 100 µM
EC50 (THP-1 cells; human): 1.91 µM

NC(=O)Cn1cc2c(n1)c(N)nc1cc(-c3ccn[nH]3)ccc12 [Example 541]
EC50 (TLR8; activity range): > 100 µM
EC50 (TLR7; activity range): > 100 µM
EC50 (THP-1 cells; human cells): 0.65 µM

Nc1nc2cc(-c3cc[nH]n3)ccc2c2cn(CC(=O)N[C@@H]3CCOC3)nc12 [Example 533]
EC50 (TLR8; activity range): > 100 µM
EC50 (TLR7; activity range): > 100 µM
EC50 (THP-1 cells; human cells): 2.28 µM

Cc1nc(C(=O)NC(C)(C)Cn2cc3c(N)nc4cc(-c5cc[nH]n5)ccc4c3n2)co1 [Example 467]
EC50 (TLR8; activity range): > 100 µM
EC50 (TLR7; activity range): > 100 µM
EC50 (THP-1 cells; human cells): 0.94 µM

NC(=O)CCn1cc2c(N)nc3cc(-n4cccn4)ccc3c2n1 [Example 558]
EC50 (TLR8; activity range): > 100 µM
EC50 (TLR7; activity range): > 100 µM
EC50 (THP-1 cells; human cells): 0.63 µM

Nc1nc2cc(-c3cc[nH]n3)ccc2c2nn(C3CCOC3)cc12 (racemic) [Example 237]
EC50 (TLR8; activity range class): > 100 µM
EC50 (TLR7; activity range class): > 100 µM
EC50 (THP-1 cells; human): 0.09 µM

Nc1nc2cc(-c3ccn[nH]3)ccc2c2nn(CCNC(=O)c3ccc(F)cn3)nc12 [Example 160]
EC50 (TLR8; activity range class): > 100 µM
EC50 (TLR7; activity range class): > 100 µM
EC50 (THP-1 cells; human): 0.7 µM

CCn1c(CCCO)cc2c(N)nc3cc(-c4ccn[nH]4)ccc3c21 [Example 449]
EC50 (TLR8; activity range): > 100 µM
EC50 (TLR7; activity range): > 100 µM
EC50 (THP-1 cells; human cells): 0.7 µM

CC(C)(C(=O)NCCO)n1cc2c(N)nc3cc(-c4cc[nH]n4)ccc3c2n1 [Example 521]
EC50 (TLR8; activity range): > 100 µM
EC50 (TLR7; activity range): > 100 µM
EC50 (THP-1 cells; human cells): 5.67 µM

CS(=O)(=O)CCCn1ncc2c(N)nc3cc(-c4cc[nH]n4)ccc3c21 [Example 212]
EC50 (TLR8; activity range class): > 100 µM
EC50 (TLR7; activity range class): > 100 µM
EC50 (THP-1 cells; human): 4.37 µM

CC(=O)NC(C)(C)Cn1cc2c(N)nc3cc(-c4ccn[nH]4)ccc3c2n1 [Example 256]
EC50 (TLR8; activity range class): > 100 µM
EC50 (TLR7; activity range class): > 100 µM
EC50 (THP-1 cells; human): 0.53 µM

Nc1nc2cc(-c3ccn[nH]3)ccc2c2nn(CC3COCCN3)cc12 (stereo not drawn) [Example 255]
EC50 (TLR8; activity range class): > 100 µM
EC50 (TLR7; activity range class): > 100 µM
EC50 (THP-1 cells; human): 10.9 µM

CS(=O)(=O)CCCn1cc2c(N)nc3cc(-n4cccn4)ccc3c2n1 [Example 387]
EC50 (TLR8; activity range class): > 100 µM
EC50 (TLR7; activity range class): > 100 µM
EC50 (THP-1 cells; human): 2.3 µM

Nc1nc2cc(-c3cc[nH]n3)ccc2c2nn(Cc3ccnc(CO)c3)cc12 [Example 409]
EC50 (TLR8; activity range): > 100 µM
EC50 (TLR7; activity range): > 100 µM
EC50 (THP-1 cells; human cells): 1.47 µM

N#CCCn1cc2c(N)nc3cc(-c4cc[nH]n4)ccc3c2n1 [Example 395]
EC50 (TLR8; activity range): > 100 µM
EC50 (TLR7; activity range): > 100 µM
EC50 (THP-1 cells; human cells): 0.07 µM

Nc1nc2cc(-c3cc[nH]n3)ccc2c2nn(C[C@H](O)CO)cc12 [Example 364]
EC50 (TLR8; activity range class): > 100 µM
EC50 (TLR7; activity range class): > 100 µM
EC50 (THP-1 cells; human): 1.47 µM

CN(C)CCn1nc2c(N)nc3cc(-c4ccn[nH]4)ccc3c2n1 [Example 161]
EC50 (TLR8; activity range class): > 100 µM
EC50 (TLR7; activity range class): > 100 µM
EC50 (THP-1 cells; human): 5.82 µM

Nc1nc2cc(-c3cc[nH]n3)ccc2c2[nH]c(CN3CCOCC3)c(Cl)c12 [Example 486]
EC50 (TLR8; activity range): > 100 µM
EC50 (TLR7; activity range): > 100 µM
EC50 (THP-1 cells; human cells): 0.13 µM
